Test results taken from US20250281496A1, “METHODS OF TREATING NEUROPATHY USING FORETINIB AND COMPOSITIONS THEREOF” (INDIANA UNIVERSITY RESEARCH AND TECHNOLOGY CORPORATION, priority 2022, published 2025).

How the values were obtained:
[1] = Pharmacokinetics: blood plasma concentration after single IP injection, mass spectrometry; type: in vivo, mice
Description: A) Quantitative representation of changes in mouse body weight in dependence of the indicated IP daily doses of Foretinib (n=2 per dose). B) Changes in mouse blood plasma concentration of 5 mg/kg IP injected Foretinib during 48 hours after a single injection (n=3).
It is expected that Foretinib will protect against the diabetes-induced loss of terminal axons and ensheathing SC. In our previous study, 30 mg/kg of foretinib was administered via daily gavage for a course of 5 weeks. Although reported as non-toxic, at this dose the drug, along with a strong neuroprotective effect, caused lethargic behavior, ruffled fur and weight loss requiring early termination of the experiment. Due to the substantial prevalence of type 2 diabetes, we will examine the effect of foretinib treatment on type 2 diabetic mice (db/db). To define the maximal tolerable dose, we treated wt mice by daily intraperitoneal (IP) injection of several various dosages of foretinib for 20 days, while assessing the mice weight and behavior. […] Next, to define the pharmacokinetic (PK) characteristics of the drug, we performed a mass spectrometry analysis of blood samples from wt mice treated with 5 mg/kg (n=3 mice per dose per time point). We observed that IP injection of 5 mg/kg of foretinib generated nearly 100 ng/ml blood concentration during first 4 hours, declining by 4 ng/ml/hour (FIG. 7B).

[2] = system: experimental diabetic neuropathy; test: Intraepidermal nerve fiber density (IENFD) in plantar skin of STZ-diabetic mice; type: in vivo
Description: The primary objective of these experiments was to determine the effect of oral Foretinib on cutaneous innervation density in an experimental diabetic neuropathy. The numbers of animals needed for these experiments were determined by power analysis based on preliminary experiments assessing the cutaneous innervation density in diabetic and non-diabetic mice. A 50% increased nerve fiber density compared to the diabetic control was considered scientifically relevant, requiring a minimum of n=5 animals per group to achieve a power of 0.9 when assuming a standard deviation (SD) of 0.01 for all groups (normally distributed, two-sided). Animals were randomly allocated to experimental groups prior to induction of diabetes and the investigators were blinded during outcome assessments. Two experimental animals allocated to the Foretinib treated group were excluded from the experiment after not responding to the STZ injections. No outliers were excluded from the analysis. After five weeks, the experiment was terminated because 4 of 8 animals reached a predefined humane endpoint of greater than 15% weight loss compared to their pre-diabetic weight. The scheduled experimental endpoint was 12 weeks post-STZ injection.
A total of 25 adult (24-28g), transgenic mice with a genetic black six background were included. […]

COc1cc2c(Oc3ccc(NC(=O)C4(C(=O)Nc5ccc(F)cc5)CC4)cc3F)ccnc2cc1OCCCN1CCOCC1 [Foretinib, N1-[3-Fluoro-4-({6-methoxy-7-[3-(morpholin-4-yl)propoxy]quinolin-4-yl}oxy)phenyl]-N′1-(4-fluorophenyl)cyclopropane-1,1-dicarboxamide]
decline of blood concentration ([1]; 5 mg/kg IP single injection, after first 4 hours): 4 ng/mL/h | blood concentration during first 4 hours ([1]; 5 mg/kg IP single injection, wt mice, n=3): ~100 ng/mL | blood concentration expressed in molar units ([1]; 5 mg/kg IP, conversion of 100 ng/ml): 160 nM | intraepidermal nerve fiber density (IENFD), plantar skin ([2]; 30 mg/kg oral daily, 5 weeks post-diabetes induction, versus other diabetic groups): similarly reduced IENFD | reduction in epidermal nerve fiber density compared to healthy mice ([2]; all diabetic groups incl. Foretinib 30 mg/kg/day oral, five weeks after diabetes induction): 25%
